Biological target: T1, Low affinity immunoglobulin epsilon Fc receptor (Homo sapiens, UniProt P06734)
T1 sequence (P06734 whole entry): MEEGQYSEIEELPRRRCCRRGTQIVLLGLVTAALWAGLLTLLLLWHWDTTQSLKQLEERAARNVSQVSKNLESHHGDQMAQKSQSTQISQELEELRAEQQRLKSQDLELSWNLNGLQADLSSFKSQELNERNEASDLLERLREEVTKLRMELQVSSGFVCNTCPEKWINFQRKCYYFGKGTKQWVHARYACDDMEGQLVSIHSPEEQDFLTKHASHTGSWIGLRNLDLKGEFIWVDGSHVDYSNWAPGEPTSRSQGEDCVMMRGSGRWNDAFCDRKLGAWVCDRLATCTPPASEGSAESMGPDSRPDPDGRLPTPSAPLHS
Experiment: (§1) Tested for inhibition against CD23 (IgE receptor) proteolysis in membranes derived from RPM18866 cells ( a human B-cell line); value ranges from 5-10

With `O=C(C[C@H](C(=O)N[C@@H](Cc1ccccc1)C(=O)NCc1ccccc1)C1CCCCC1)NO` [(S)-N*1*-((S)-1-Benzylcarbamoyl-2-phenyl-ethyl)-2-cyclohexyl-N*4*-hydroxy-succinamide] the IC50 was 5 µM.

Biological target: T1, Low affinity immunoglobulin epsilon Fc receptor
Experiment: ChEBML_41676
Text: as §1

First: CC(C)SC[C@H](CC(=O)NO)C(=O)N[C@@H](Cc1ccccc1)C(=O)NCc1ccccc1 [(R)-N*1*-((S)-1-Benzylcarbamoyl-2-phenyl-ethyl)-N*4*-hydroxy-2-isopropylsulfanylmethyl-succinamide]
Second: O=C(C[C@@H](Cc1ccc2ccccc2c1)C(=O)N[C@@H](Cc1ccccc1)C(=O)NCc1ccccc1)NO [(R)-N*1*-((S)-1-Benzylcarbamoyl-2-phenyl-ethyl)-N*4*-hydroxy-2-naphthalen-2-ylmethyl-succinamide]
The IC50 of the first is 8-fold higher: 8 µM for the first, 1 µM for the second.

Biological target: not listed separately
Experiment: Tested for inhibition against CD23 (IgE receptor) proteolysis in membranes derived from RPM18866 cells (a human B-cell line)

`NC(=O)CC[C@H](CC(=O)NO)C(=O)N[C@@H](Cc1ccccc1)C(=O)NCc1ccccc1` [(R)-3-((S)-1-Benzylcarbamoyl-2-phenyl-ethylcarbamoyl)-hexanedioic acid 6-amide 1-hydroxyamide] and `O=C(C[C@@H](O)C(=O)N[C@@H](Cc1ccccc1)C(=O)NCc1ccccc1)NO` [(R)-N*1*-((S)-1-Benzylcarbamoyl-2-phenyl-ethyl)-2,N*4*-dihydroxy-succinamide] cannot be ordered by IC50: greater than 20 µM for the first, greater than 20 µM for the second.

Compared with `O=C(C[C@@H](CC1CCCCC1)C(=O)N[C@@H](Cc1ccccc1)C(=O)NCc1ccccc1)NO` [(R)-N*1*-((S)-1-Benzylcarbamoyl-2-phenyl-ethyl)-2-cyclohexylmethyl-N*4*-hydroxy-succinamide], `O=C(C[C@@H](CC1CCCC1)C(=O)N[C@@H](Cc1ccccc1)C(=O)NCc1ccccc1)NO` [(R)-N*1*-((S)-1-Benzylcarbamoyl-2-phenyl-ethyl)-2-cyclopentylmethyl-N*4*-hydroxy-succinamide] is 18-fold lower in IC50: 3.7 µM for the first, 0.2 µM for the second. The second is the more potent here.

First: CC(C)S[C@H](CC(=O)NO)C(=O)N[C@@H](Cc1ccccc1)C(=O)NCc1ccccc1 [(R)-N*1*-((S)-1-Benzylcarbamoyl-2-phenyl-ethyl)-N*4*-hydroxy-2-isopropylsulfanyl-succinamide]
Second: C[C@H](CC(=O)NO)C(=O)N[C@@H](Cc1ccccc1)C(=O)NCc1ccccc1 [(R)-N*1*-((S)-1-Benzylcarbamoyl-2-phenyl-ethyl)-N*4*-hydroxy-2-methyl-succinamide]
The IC50 of the first is lower: 8 µM for the first, greater than 20 µM for the second.

First: O=C(C[C@@H](CCc1ccccc1)C(=O)N[C@@H](Cc1ccccc1)C(=O)NCc1ccccc1)NO [(R)-N*1*-((S)-1-Benzylcarbamoyl-2-phenyl-ethyl)-N*4*-hydroxy-2-phenethyl-succinamide]
Second: O=C(C[C@H](C(=O)N[C@@H](Cc1ccccc1)C(=O)NCc1ccccc1)c1ccccc1)NO [(S)-N*1*-((S)-1-Benzylcarbamoyl-2-phenyl-ethyl)-N*4*-hydroxy-2-phenyl-succinamide]
The IC50 of the first is 3.1-fold higher: 5 µM for the first, 1.6 µM for the second. The second is the more potent here.

`O=C(C[C@H](C(=O)N[C@@H](Cc1ccccc1)C(=O)NCc1ccccc1)c1ccc(-c2ccccc2)cc1)NO` [(S)-N*1*-((S)-1-Benzylcarbamoyl-2-phenyl-ethyl)-2-biphenyl-4-yl-N*4*-hydroxy-succinamide] and `O=C(C[C@H](C(=O)N[C@@H](Cc1ccccc1)C(=O)NCc1ccccc1)c1cccc2ccccc12)NO` [(S)-N*1*-((S)-1-Benzylcarbamoyl-2-phenyl-ethyl)-N*4*-hydroxy-2-naphthalen-1-yl-succinamide] cannot be ordered by IC50: greater than 20 µM for the first, greater than 20 µM for the second.

`CN(C)C[C@H](CC(=O)NO)C(=O)N[C@@H](Cc1ccccc1)C(=O)NCc1ccccc1` [(S)-N*1*-((S)-1-Benzylcarbamoyl-2-phenyl-ethyl)-2-dimethylaminomethyl-N*4*-hydroxy-succinamide] and `CC(C)C[C@@H](CC(=O)NO)C(=O)N[C@@H](Cc1ccccc1)C(=O)NCc1ccccc1` [(S)-N*1*-((S)-1-Benzylcarbamoyl-2-phenyl-ethyl)-N*4*-hydroxy-2-isobutyl-succinamide] cannot be ordered by IC50: greater than 20 µM for the first, greater than 20 µM for the second.

In the case of `O=C(CCC(=O)N[C@@H](Cc1ccccc1)C(=O)NCc1ccccc1)NO` [N-((S)-1-Benzylcarbamoyl-2-phenyl-ethyl)-N'-hydroxy-succinamide], the IC50 is reported as greater than 20 µM.
